From patent US10280166B2, “2-(1H-indazol-3-yl)-3H-imidazo[4,5-B]pyridine and therapeutic uses thereof” (Samumed, LLC, priority 2014, dated 2019)

How the values were obtained:
[1] = test system: Wnt activity (SW480 colon carcinoma cells stably expressing the Sp5-Luc reporter gene); experiment: Sp5-Luc reporter gene screening assay for Wnt activity in SW480 cells; type: cell-based; settings: Homo sapiens, 42 h incubation, luminescence
How it was run: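 SW480 cells stably carrying an Sp5 promoter (eight TCF/LEF sites)-luciferase reporter were plated overnight in 10% FCS medium. BrightGlo luminescence was normalised to DMSO wells, and IC50 was obtained by four-parameter fit.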

[2] = test system: primary human fibroblasts derived from IPF patients (LL29 cells); experiment: Inhibition of fibrosis (αSMA) in TGF-β1 treated primary human fibroblasts from IPF patients; type: cell-based; settings: Fibroblast, 96 h, TGF-β1 20 ng/mL, 4 days, % αSMA positive cells
Source text: The above synthesized compounds were screened using primary human fibroblasts (derived from IPF patients) treated with TGF-β1 to determine their ability to inhibit the fibrotic process.
Primary human fibroblasts derived from IPF patients (LL29 cells) [^1Xiaoqiu Liu, et.al., “Fibrotic Lung Fibroblasts Show Blunted Inhibition by cAMP Due to Deficient cAMP Response Element-Binding Protein Phosphorylation”, Journal of Pharmacology and Experimental Therapeutics (2005), 315(2), 678-687; ^2Watts, K. L., et.al., “RhoA signaling modulates cyclin D1 expression in human lung fibroblasts; implications for idiopathic pulmonary fibrosis”, Respiratory Research (2006), 7(1), 88] were obtained from American Type Culture Collection (ATCC) and expanded in F12 medium supplemented with 15% Fetal Bovine Serum and Penicillin/Streptomycin.
Each compound was dissolved in DMSO as a 10 mM stock and used to prepare compound source plates. Serial dilution (1:2, 11-point dose-response curves from 10 μM to 1.87 nM) and compound transfer was performed using the ECHO 550 (Labcyte, Sunnyvale, Calif.) into 384-well clear bottom assay plates (Greiner Bio-One) with appropriate DMSO backfill for a final DMSO concentration of 0.1%. LL29 cells were plated at 1,500 cells/well in 80 μl/well F12 medium supplemented with 1% Fetal Bovine Serum. One hour after addition of the cells, TGF-β1 (Peprotech; 20 ng/mL) was added to the plates to induce fibrosis (ref. 1 and 2 above). Wells treated with TGF-β1 and containing DMSO were used as controls. Cells were incubated at 37° C. and 5% CO2 for 4 days. Following incubation for 4 days, SYTOX green nucleic acid stain (Life Technologies [Thermo Fisher Scientific]) was added to the wells at a final concentration of 1 uM and incubated at room temperature for 30 min. Cells were then fixed using 4% formaldehyde (Electron Microscopy Sciences), washed 3 times with PBS followed by blocking and permeabilization using 3% Bovine Serum Albumin (BSA; Sigma) and 0.3% Triton X-100 (Sigma) in PBS. Cells were then stained with antibody specific to α-smooth muscle actin (αSMA; Abcam) (ref. 1 and 2 above) in 3% Bovine Serum Albumin (BSA; Sigma) and 0.3% Triton X-100 (Sigma) in PBS, and incubated overnight at 4° C. Cells were then washed 3 times with PBS, followed by incubation with Alexa Flor-647 conjugated secondary antibody (Life Technologies [Thermo Fisher Scientific]) and DAPI at room temperature for 1 hour. Cells were then washed 3 times with PBS and plates were sealed for imaging. αSMA staining was imaged by excitation at 630 nm and emission at 665 nm and quantified using the Compartmental Analysis program on the CellInsight CX5 (Thermo Scientific). Dead or apoptotic cells were excluded from analysis based on positive SYTOX green staining. % of total cells positive for αSMA were counted in each well and normalized to the average of 11 wells treated with TGF-β1 on the same plate using Dotmatics' Studies Software. The normalized averages (fold change over untreated) of 3 replicate wells for each compound concentration were used to create dose-responses curves and EC50 values were calculated using non-linear regression curve fit in the Dotmatics' Studies Software. The EC50 values are reported.

Structure (SMILES) | IC50 [1] | EC50 [2]
CC(C)C(=O)Nc1cncc(-c2ccc3[nH]nc(-c4nc5c(N6CCN(C)CC6)ccnc5[nH]4)c3c2)c1 [Compound 217, N-(5-(3-(7-(4-Methylpiperazin-1-yl)-3H-imidazo[4,5-b]pyridin-2-yl)-1H-indazol-5-yl)pyridin-3-yl)isobutyramide] | 173 nM | 2.83 nM
CN1CCN(c2ccnc3[nH]c(-c4n[nH]c5ccc(-c6cncc(CN7CCCCC7)c6)cc45)nc23)CC1 [Compound 223, 7-(4-Methylpiperazin-1-yl)-2-(5-(5-(piperidin-1-ylmethyl)pyridin-3-yl)-1H-indazol-3-yl)-3H-imidazo[4,5-b]pyridine] | 3070 nM | 0.009 nM
CN1CCN(c2ccnc3[nH]c(-c4n[nH]c5ccc(-c6cncc(NC(=O)C7CCCC7)c6)cc45)nc23)CC1 [Compound 229, N-(5-(3-(7-(4-Methylpiperazin-1-yl)-3H-imidazo[4,5-b]pyridin-2-yl)-1H-indazol-5-yl)pyridin-3-yl)cyclopentanecarboxamide] | 284 nM | 1.07 nM
CN1CCN(c2ccnc3[nH]c(-c4n[nH]c5ccc(-c6cncnc6)cc45)nc23)CC1 [Compound 234, 7-(4-Methylpiperazin-1-yl)-2-(5-(pyrimidin-5-yl)-1H-indazol-3-yl)-3H-imidazo[4,5-b]pyridine] | 795 nM | 0.434 nM
c1cncc(-c2ccc3[nH]nc(-c4nc5cccnc5[nH]4)c3c2)c1 [Compound 238, 2-(5-(Pyridin-3-yl)-1H-indazol-3-yl)-3H-imidazo[4,5-b]pyridine] | 28.8 nM | 0.013 nM
Cc1ccncc1-c1ccc2[nH]nc(-c3nc4cccnc4[nH]3)c2c1 [Compound 239, 2-(5-(4-Methylpyridin-3-yl)-1H-indazol-3-yl)-3H-imidazo[4,5-b]pyridine] | 4100 nM | 0.171 nM
CN(C)Cc1cncc(-c2ccc3[nH]nc(-c4nc5cccnc5[nH]4)c3c2)c1 [Compound 247, 1-(5-(3-(3H-Imidazo[4,5-b]pyridin-2-yl)-1H-indazol-5-yl)pyridin-3-yl)-N,N-dimethylmethanamine] | 77 nM | 0.184 nM
CC(C)(C)CC(=O)Nc1cncc(-c2ccc3[nH]nc(-c4nc5cccnc5[nH]4)c3c2)c1 [Compound 250, N-(5-(3-(3H-Imidazo[4,5-b]pyridin-2-yl)-1H-indazol-5-yl)pyridin-3-yl)-3,3-dimethylbutanamide] | 124 nM | 2.6 nM
O=C(Nc1cncc(-c2ccc3[nH]nc(-c4nc5cccnc5[nH]4)c3c2)c1)C1CCCCC1 [Compound 256, N-(5-(3-(3H-Imidazo[4,5-b]pyridin-2-yl)-1H-indazol-5-yl)pyridin-3-yl)cyclohexanecarboxamide] | 66.3 nM | 0.401 nM
Cc1ccncc1-c1ccc2[nH]nc(-c3nc4c(-c5ccsc5)ccnc4[nH]3)c2c1 [Compound 265, 2-(5-(4-Methylpyridin-3-yl)-1H-indazol-3-yl)-7-(thiophen-3-yl)-3H-imidazo[4,5-b]pyridine] | 9.4 nM | 0.131 nM
CC(C)C(=O)Nc1cncc(-c2ccc3[nH]nc(-c4nc5c(-c6ccsc6)ccnc5[nH]4)c3c2)c1 [Compound 269, N-(5-(3-(7-(Thiophen-3-yl)-3H-imidazo[4,5-b]pyridin-2-yl)-1H-indazol-5-yl)pyridin-3-yl)isobutyramide] | 5.1 nM | 9.99 nM
O=C(Cc1ccccc1)Nc1cncc(-c2ccc3[nH]nc(-c4nc5c(-c6ccsc6)ccnc5[nH]4)c3c2)c1 [Compound 270, 2-Phenyl-N-(5-(3-(7-(thiophen-3-yl)-3H-imidazo[4,5-b]pyridin-2-yl)-1H-indazol-5-yl)pyridin-3-yl)acetamide] | 16.3 nM | 0.01 nM
O=C(Nc1cncc(-c2ccc3[nH]nc(-c4nc5c(-c6ccsc6)ccnc5[nH]4)c3c2)c1)c1ccccc1 [Compound 271, N-(5-(3-(7-(Thiophen-3-yl)-3H-imidazo[4,5-b]pyridin-2-yl)-1H-indazol-5-yl)pyridin-3-yl)benzamide] | 8.4 nM | 0.068 nM
O=C(Nc1cncc(-c2ccc3[nH]nc(-c4nc5c(-c6ccsc6)ccnc5[nH]4)c3c2)c1)C1CC1 [Compound 279, N-(5-(3-(7-(Thiophen-3-yl)-3H-imidazo[4,5-b]pyridin-2-yl)-1H-indazol-5-yl)pyridin-3-yl)cyclopropanecarboxamide] | 5.2 nM | 0.306 nM
O=C(Nc1cncc(-c2ccc3[nH]nc(-c4nc5c(-c6ccsc6)ccnc5[nH]4)c3c2)c1)C1CCCC1 [Compound 281, N-(5-(3-(7-(Thiophen-3-yl)-3H-imidazo[4,5-b]pyridin-2-yl)-1H-indazol-5-yl)pyridin-3-yl)cyclopentanecarboxamide] | 9.8 nM | 0.359 nM
c1ccc(CNCc2cncc(-c3ccc4[nH]nc(-c5nc6c(-c7ccsc7)ccnc6[nH]5)c4c3)c2)cc1 [Compound 283, N-Benzyl-1-(5-(3-(7-(thiophen-3-yl)-3H-imidazo[4,5-b]pyridin-2-yl)-1H-indazol-5-yl)pyridin-3-yl)methanamine] | 137 nM | 0.605 nM
CCNCc1cncc(-c2ccc3[nH]nc(-c4nc5c(-c6ccoc6)ccnc5[nH]4)c3c2)c1 [Compound 292, N-((5-(3-(7-(Furan-3-yl)-3H-imidazo[4,5-b]pyridin-2-yl)-1H-indazol-5-yl)pyridin-3-yl)methyl)ethanamine] | 47.7 nM | 0.009 nM
CC(C)C(=O)Nc1cncc(-c2ccc3[nH]nc(-c4nc5c(-c6ccoc6)ccnc5[nH]4)c3c2)c1 [Compound 295, N-(5-(3-(7-(Furan-3-yl)-3H-imidazo[4,5-b]pyridin-2-yl)-1H-indazol-5-yl)pyridin-3-yl)isobutyramide] | 5.1 nM | 0.405 nM
CCCCC(=O)Nc1cncc(-c2ccc3[nH]nc(-c4nc5c(-c6ccoc6)ccnc5[nH]4)c3c2)c1 [Compound 304, N-(5-(3-(7-(Furan-3-yl)-3H-imidazo[4,5-b]pyridin-2-yl)-1H-indazol-5-yl)pyridin-3-yl)pentanamide] | 6 nM | 0.079 nM
O=C(Nc1cncc(-c2ccc3[nH]nc(-c4nc5c(-c6ccoc6)ccnc5[nH]4)c3c2)c1)C1CCC1 [Compound 306, N-(5-(3-(7-(Furan-3-yl)-3H-imidazo[4,5-b]pyridin-2-yl)-1H-indazol-5-yl)pyridin-3-yl)cyclobutanecarboxamide] | 6.7 nM | 0.527 nM
c1cc(-c2ccoc2)c2nc(-c3n[nH]c4ccc(-c5cncc(CNCC6CCCC6)c5)cc34)[nH]c2n1 [Compound 310, 1-Cyclopentyl-N-((5-(3-(7-(furan-3-yl)-3H-imidazo[4,5-b]pyridin-2-yl)-1H-indazol-5-yl)pyridin-3-yl)methyl)methanamine] | 1270 nM | 9.99 nM
CCC(=O)Nc1cncc(-c2ccc3[nH]nc(-c4nc5c(-c6cccs6)ccnc5[nH]4)c3c2)c1 [Compound 313, N-(5-(3-(7-(Thiophen-2-yl)-3H-imidazo[4,5-b]pyridin-2-yl)-1H-indazol-5-yl)pyridin-3-yl)propionamide] | 2 nM | 0.027 nM
CC(C)(C)C(=O)Nc1cncc(-c2ccc3[nH]nc(-c4nc5c(-c6cccs6)ccnc5[nH]4)c3c2)c1 [Compound 320, N-(5-(3-(7-(Thiophen-2-yl)-3H-imidazo[4,5-b]pyridin-2-yl)-1H-indazol-5-yl)pyridin-3-yl)pivalamide] | 8.8 nM | 0.016 nM
CN(C)Cc1cncc(-c2ccc3[nH]nc(-c4nc5c(-c6cccs6)ccnc5[nH]4)c3c2)c1 [Compound 325, N,N-Dimethyl-1-(5-(3-(7-(thiophen-2-yl)-3H-imidazo[4,5-b]pyridin-2-yl)-1H-indazol-5-yl)pyridin-3-yl)methanamine] | 932 nM | 0.04 nM
